Assay results from patent publication US8476197B2, “Aminopropenoates as fungicides” (priority 2009, dated 2013).
Marks after values point to notes of the source that are not given here.

conditions: pH 2.3

| Log P | SMILES |
| --- | --- |
| 2.91 | CCN(C)C(=O)C(C#N)=C(NC(C)C(C)C)c1cccnc1Cl (stereo not shown) [Compound 1282] |
| 4.02^[c]; 4.02^[b] | CC(C)C(C)NC(=O)C(C#N)=C(NC(C)C(C)C)c1cccnc1Cl (stereo not shown) [Compound 1283] |
| 2.56 | CCOC(=O)C(C#N)=C(Nc1cnc2sccc2c1)c1cccnc1Cl [Compound 1310] |

| SMILES | Log P |
| --- | --- |
| CC(C)C(C)NC(=C(C#N)C(=O)OC1CCC1)c1cccnc1Cl (stereo not shown) [Compound 1284] | 3.79^[c]; 3.79^[b] |

same assay, conditions: pH 2.7

| SMILES | Log P |
| --- | --- |
| CCOC(=O)C(C#N)=C(NC(C)c1nccs1)c1ccnc(Cl)c1Cl (stereo not shown) [Compound 1276] | 2.96 |
| CCNC(=O)C(C#N)=C(NC(C)C(C)C)c1cn(C)nc1C(F)F (stereo not shown) [Compound 1278] | 2.71^[a] |
| CC(C)C(C)NC(=C(C#N)C(=O)N(C)C)c1cn(C)nc1C(F)F (stereo not shown) [Compound 1286] | 2.45^[a] |
| CCNC(=O)C(C#N)=C(NC(C)c1nccs1)c1ccnc(Cl)c1Cl (stereo not shown) [Compound 1289] | 2.57^[a] |
| C#CCNC(=O)C(C#N)=C(NC(C)c1nccs1)c1cn(C)nc1C(F)F (stereo not shown) [Compound 1297] | 2.04^[a] |
| CC(C)[C@H](C)N/C(=C(/C#N)C(=O)NC1COC1)c1cn(C)nc1C(F)F [Compound 1298] | 1.84^[a] |
| CC(C)C(C)NC(=C(C#N)C(=O)NCCC#N)c1cn(C)nc1C(F)F (stereo not shown) [Compound 1299] | 2.44^[a] |
| CCNC(=O)C(C#N)=C(NC(C)c1nccs1)c1ccnc(Br)c1Cl (stereo not shown) [Compound 1305] | 2.62^[a] |
| CCNC(=O)C(C#N)=C(NC(C)c1nccs1)c1ccnc(C)c1Cl (stereo not shown) [Compound 1306] | 2.18^[a] |
| CCNC(=O)C(C#N)=C(NC(C)C(C)C)c1ccnc(Cl)c1F (stereo not shown) [Compound 1316] | 3.44^[a] |
| CCOC(=O)C(C#N)=C(NC1CCC1)c1ccnc(Cl)c1F [Compound 1321] | 3.39^[a] |
| CCNC(=O)C(C#N)=C(NC(C)C(C)C)c1ccnc(Br)c1F (stereo not shown) [Compound 1323] | 3.46^[a] |
| CCOC(=O)C(C#N)=C(NC(C)C(=O)NC)c1ccnc(Cl)c1F (stereo not shown) [Compound 1324] | 2.15^[a] |
| CC(C)C(C)NC(=C(C#N)C(=O)N1CCOCC1)c1cn(C)nc1C(F)F (stereo not shown) [Compound 1326] | 2.43^[a] |
| CC(NC(=C(C#N)C(=O)N1CCOCC1)c1cn(C)nc1C(F)F)c1nccs1 (stereo not shown) [Compound 1327] | 1.79^[a] |
| CCOC(=O)C(C#N)=C(NC(C)c1nccs1)c1ccnc(SC)c1Cl (stereo not shown) [Compound 1331] | 3.53^[a] |
| CCOC(=O)C(C#N)=C(NC1CCCCC1)c1cn(C)nc1C(F)F [Compound 1333] | 3.29^[a] |
| CC#CC1(NC(=C(C#N)C(=O)OCC)c2cn(C)nc2C(F)F)CCCCC1 [Compound 1336] | 3.71^[a] |
| CCOC(=O)C(C#N)=C(NC1CCC(OCC)CC1)c1cn(C)nc1C(F)F (stereo not shown) [Compound 1337] | 3.08^[a] |
| CCOC(=O)C(C#N)=C(NC1COC1)c1cn(C)nc1C(F)F [Compound 1339] | 1.79^[a] |
| CCOC(=O)C(C#N)=C(NCC1(C)CCCO1)c1cn(C)nc1C(F)F (stereo not shown) [Compound 1340] | 2.54^[a] |
| CCOC(=O)C(C#N)=C(NC1CCCC1OC)c1cn(C)nc1C(F)F (stereo not shown) [Compound 1352] | 2.78^[a] |
| CCOC(=O)C(C#N)=C(NC1CCCC1OCC)c1cn(C)nc1C(F)F (stereo not shown) [Compound 1353] | 3.21^[a] |
| CCOC(=O)C(C#N)=C(NC1CSC1)c1cn(C)nc1C(F)F [Compound 1355] | 2.54^[a] |
| CCOC(=O)C(C#N)=C(NC1COC1)c1cccnc1Cl [Compound 1356] | 1.84^[a] |
| CCOC(=O)C(C#N)=C(NCC1(C)CCCO1)c1cccnc1Cl (stereo not shown) [Compound 1357] | 2.7^[a] |
| CCOC(=O)C(C#N)=C(NC(C)c1ccccc1C)c1cn(C)nc1C(F)F (stereo not shown) [Compound 1365] | 3.46^[a] |
| CCOC(=O)C(C#N)=C(NC1CCS(=O)(=O)C1)c1cccnc1Cl (stereo not shown) [Compound 1369] | 1.84^[a] |
| CCOC(=O)C(C#N)=C(NC1CCC(OCC)CC1)c1cccnc1Cl (stereo not shown) [Compound 1370] | 3.31^[a] |

Second part, the compound after the results:

| Log P | SMILES |
| --- | --- |
| 2.57^[a] | CCOC(=O)C(C#N)=C(NC(C)c1nccs1)c1ccnc(C)c1Cl (stereo not shown) [Compound 1285] |
| 3.02^[a] | CCOC(=O)C(C#N)=C(NC(C)c1nccs1)c1ccnc(Br)c1Cl (stereo not shown) [Compound 1290] |
| 1.59^[a] | CC(NC(=C(C#N)C(=O)N(C)C)c1cn(C)nc1C(F)F)c1ccccn1 (stereo not shown) [Compound 1295] |
| 1.81^[a] | CC(NC(=C(C#N)C(=O)N(C)C)c1cn(C)nc1C(F)F)c1nccs1 (stereo not shown) [Compound 1296] |
| 2.41^[a] | CCOC(=O)C(C#N)=C(NC(C)c1ccccn1)c1cnn(C)c1C(F)F (stereo not shown) [Compound 1300] |
| 3.23^[a] | CCOC(=O)C(C#N)=C(NC(C)C(C)C)c1cnn(C)c1C(F)F (stereo not shown) [Compound 1301] |
| 2.46^[a] | CCOC(=O)C(C#N)=C(NC(C)c1nccs1)c1cnn(C)c1C(F)F (stereo not shown) [Compound 1302] |
| 2.98^[a] | CCOC(=O)C(C#N)=C(NC(C)C1CC1)c1cnn(C)c1C(F)F (stereo not shown) [Compound 1303] |
| 2.84^[a] | CCOC(=O)C(C#N)=C(NC1CCC1)c1cnn(C)c1C(F)F [Compound 1304] |
| 2.11^[a] | CCNC(=O)C(C#N)=C(NC(C)c1nccs1)c1cnn(C)c1C(F)F (stereo not shown) [Compound 1308] |
| 2.64^[a] | CCNC(=O)C(C#N)=C(NC(C)C1CC1)c1cnn(C)c1C(F)F (stereo not shown) [Compound 1309] |
| 3.81^[a] | CCOC(=O)C(C#N)=C(NC(C)C(C)C)c1ccnc(Cl)c1F (stereo not shown) [Compound 1311] |
| 3^[a] | CCOC(=O)C(C#N)=C(NC(C)c1ccccn1)c1ccnc(Cl)c1F (stereo not shown) [Compound 1312] |
| 2.96^[a] | CCOC(=O)C(C#N)=C(NC(C)c1nccs1)c1ccnc(Cl)c1F (stereo not shown) [Compound 1313] |
| 3.87^[a] | CCOC(=O)C(C#N)=C(NC(C)C(C)C)c1ccnc(Br)c1F (stereo not shown) [Compound 1315] |
| 3.31^[a] | CCOC(=O)C(C#N)=C(NC(C)C(C)C)c1ccnc(C)c1F (stereo not shown) [Compound 1317] |
| 3.5^[a] | CCOC(=O)C(C#N)=C(NC(C)C1CC1)c1ccnc(Cl)c1F (stereo not shown) [Compound 1318] |
| 2.48^[a] | CCOC(=O)C(C#N)=C(NC(C)c1nccs1)c1ccnc(C)c1F (stereo not shown) [Compound 1319] |
| 2.5^[a] | CCOC(=O)C(C#N)=C(NC(C)c1ccccn1)c1ccnc(C)c1F (stereo not shown) [Compound 1320] |
| 3.39^[a] | CC#CC(C)NC(=C(C#N)C(=O)OCC)c1ccnc(Cl)c1F (stereo not shown) [Compound 1325] |
| 1.63^[a] | CC(NC(=C(C#N)C(=O)N1CCOCC1)c1cn(C)nc1C(F)F)c1ccccn1 (stereo not shown) [Compound 1328] |
| 2.5^[a] | CCNC(=O)C(C#N)=C(NC(C)c1ccccn1)c1ccnc(Cl)c1F (stereo not shown) [Compound 1329] |
| 3^[a] | CCOC(=O)C(C#N)=C(NC(C)c1nccs1)c1ccnc(Br)c1F (stereo not shown) [Compound 1330] |
| 2.71^[a] | CCOC(=O)C(C#N)=C(NC(CC)COC)c1cn(C)nc1C(F)F (stereo not shown) [Compound 1332] |
| 1.22^[a] | CCOC(=O)C(C#N)=C(NC(CC)CN(C)C)c1cn(C)nc1C(F)F (stereo not shown) [Compound 1334] |

| Log P | SMILES |
| --- | --- |
| 2.28^[a] | CCCC(CO)NC(=C(C#N)C(=O)OCC)c1cn(C)nc1C(F)F (stereo not shown) [Compound 1335] |
| 3.15^[a] | CCOC(=O)C(C#N)=C(NC(CC)CC)c1cn(C)nc1C(F)F [Compound 1338] |
| 2.42^[a] | CCOC(=O)C(C#N)=C(NC(COC)COC)c1cn(C)nc1C(F)F [Compound 1341] |
| 2.39^[a] | CCOC(=O)C(C#N)=C(NC(CC)CC#N)c1cn(C)nc1C(F)F (stereo not shown) [Compound 1342] |
| 3.51^[a] | CCCC(CC)NC(=C(C#N)C(=O)OCC)c1cn(C)nc1C(F)F (stereo not shown) [Compound 1343] |
| 2.77^[a] | CCOC(=O)C(C#N)=C(NC(C)CC(F)(F)F)c1cn(C)nc1C(F)F (stereo not shown) [Compound 1346] |
| 3.35^[a] | CCOC(=O)C(C#N)=C(NCCOc1ccccc1Br)c1cn(C)nc1C(F)F [Compound 1347] |
| 3.69^[a] | CCOC(=O)C(C#N)=C(NCC(C)c1ccccc1Br)c1cn(C)nc1C(F)F (stereo not shown) [Compound 1348] |
| 3.25^[a] | CCOC(=O)C(C#N)=C(NC(C(=O)OCC)c1ccccc1)c1cn(C)nc1C(F)F (stereo not shown) [Compound 1349] |
| 3.39^[a] | CCOCC(NC(=C(C#N)C(=O)OCC)c1cn(C)nc1C(F)F)C(C)C (stereo not shown) [Compound 1350] |
| 3.08^[a] | CCOCC(CC)NC(=C(C#N)C(=O)OCC)c1cn(C)nc1C(F)F (stereo not shown) [Compound 1351] |
| 3.44^[a] | CCCC(COCC)NC(=C(C#N)C(=O)OCC)c1cn(C)nc1C(F)F (stereo not shown) [Compound 1354] |
| 2.56^[a] | CCOC(=O)C(C#N)=C(NC(COC)COC)c1cccnc1Cl [Compound 1358] |
| 2.51^[a] | CCOC(=O)C(C#N)=C(NC(CC)CC#N)c1cccnc1Cl (stereo not shown) [Compound 1359] |
| 3.58^[a] | CCOC(=O)C(C#N)=C(NC1(c2ccc(Cl)cc2)CC1)c1cn(C)nc1C(F)F [Compound 1360] |
| 3.51^[a] | CCOC(=O)C(C#N)=C(NC1(c2cccc(Cl)c2)CC1)c1cn(C)nc1C(F)F [Compound 1361] |
| 3.35^[a] | CCOC(=O)C(C#N)=C(NC1(c2ccccc2Cl)CC1)c1cn(C)nc1C(F)F [Compound 1362] |
| 3.89^[a] | CCOC(=O)C(C#N)=C(NC(c1ccc(Cl)cc1)C1CC1)c1cn(C)nc1C(F)F (stereo not shown) [Compound 1363] |
| 3.21^[a] | CCOC(=O)C(C#N)=C(NC1(c2ccccc2)CC1)c1cn(C)nc1C(F)F [Compound 1364] |
| 2.92^[a] | CCOC(=O)C(C#N)=C(NC(C)CC(F)(F)F)c1cccnc1Cl (stereo not shown) [Compound 1366] |
| 2.92^[a] | CCOC(=O)C(C#N)=C(NC(CC)COC)c1cccnc1Cl (stereo not shown) [Compound 1367] |
| 2.45^[a] | CCCC(CO)NC(=C(C#N)C(=O)OCC)c1cccnc1Cl (stereo not shown) [Compound 1368] |
| 3.35^[a] | CCOC(=O)C(C#N)=C(NC(CC)CC)c1cccnc1Cl [Compound 1371] |
| 3.31^[a] | CCOCC(CC)NC(=C(C#N)C(=O)OCC)c1cccnc1Cl (stereo not shown) [Compound 1372] |

same assay, conditions: pH 7.5

| SMILES | Log P |
| --- | --- |
| CCOC(=O)C(C#N)=C(NC(C)c1nccs1)c1ccnc(Cl)c1Cl (stereo not shown) [Compound 1276] | 2.91 |
| CC(NC(=C(C#N)C(=O)OC1COC1)c1cccnc1Cl)C1CC1 (stereo not shown) [Compound 1281] | 2.31 |
| CCN(C)C(=O)C(C#N)=C(NC(C)C(C)C)c1cccnc1Cl (stereo not shown) [Compound 1282] | 2.9 |
| CC(C)C(C)NC(=O)C(C#N)=C(NC(C)C(C)C)c1cccnc1Cl (stereo not shown) [Compound 1283] | 4.02^[c]; 4.02^[b] |
| CC(C)C(C)NC(=C(C#N)C(=O)OC1CCC1)c1cccnc1Cl (stereo not shown) [Compound 1284] | 3.79^[c]; 3.79^[b] |
| CCOC(=O)C(C#N)=C(Nc1cnc2sccc2c1)c1cccnc1Cl [Compound 1310] | 2.49 |
